Results published in US11214803B2, “Modulators of YAP1 expression” (Ionis Pharmaceuticals, Inc., priority 2019, dated 2022).
Strand notation (5' to 3'): a small letter for the sugar, then the base; units joined by * are phosphorothioate-linked, units joined directly phosphodiester-linked; [ ] holds rarer units or linkages, { } end groups; capitals alone tell only the bases. e = 2'-O-(2-methoxyethyl) (MOE); k = constrained ethyl (cEt); [5mC] = 5-methylcytosine; d = 2'-deoxy (DNA); m = 2'-O-methyl

How the values were obtained:
Format in all cases: cell-based
[1] = tested on: Yap1 mRNA; experiment: Dose-dependent inhibition of human Yap1 in A-431 cells (Example 7, 10,000 cells per well, RTS36584); details: free uptake
Experimental: Modified oligonucleotides described in the studies above were tested at various doses in A-431 cells. Cultured A-431 cells at a density of 10,000 cells per well were treated using free uptake with modified oligonucleotides diluted to concentrations described in the tables below. After approximately 48 hours, Yap1 mRNA levels were measured as previously described using the Human Yap1 primer-probe set RTS36584. Yap1 mRNA levels were normalized to total RNA content, as measured by RIBOGREEN®. Results are presented in the tables below as percent control of the amount of Yap1 mRNA relative to untreated control cells (% UTC). IC50s were calculated using a linear regression on a log/linear plot of the data in excel.

[2] = tested on: Yap1 mRNA; experiment: Antisense inhibition of human Yap1 in A-431 cells by cEt gapmers, single dose (Example 3, RTS36584); details: Table 28; Yap1 mRNA as percent of untreated control; 3-10-3 cEt gapmers targeting SEQ ID NO.: 1, and 2
Procedure, shortened: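 A-431 cells were treated by free uptake with 2,000 nM modified oligonucleotide (3-10-3 cEt gapmers, full phosphorothioate, 5-methylcytosines) for about 48 hours. Yap1 mRNA was quantified by real-time RT-PCR, normalized to RiboGreen total RNA, and expressed as % of untreated control; asterisked values mark oligonucleotides targeting the amplicon region.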

[3] = tested on: Yap1 mRNA; experiment: Dose-dependent inhibition of human Yap1 in A-431 cells (Example 8, 10,000 cells per well, RTS4814); details: free uptake, approximately 48 hours, RTS4814; for Yap1 mRNA, % UTC: A-431 cells, 10,000 cells per well; for IC50: A-431 cells, linear regression on log/linear plot
Procedure, shortened: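 A-431 cells (10,000/well) dosed with modified oligonucleotides by free uptake; Yap1 mRNA measured ~48 h later with primer-probe set RTS4814, normalized to total RNA (RIBOGREEN). Values are % of untreated control; IC50 from linear regression on log/linear plot.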

[4] = tested on: Yap1 mRNA; experiment: Dose-dependent inhibition of human Yap1 in SNU-449 cells (Example 9, RTS36584); details: free uptake; for % UTC (Yap1 mRNA): approximately 48 hours; for IC50: linear regression on a log/linear plot
Procedure, shortened: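 SNU-449 cells (10,000/well) took up modified oligonucleotides by free uptake at a range of doses for about 48 h. Yap1 mRNA was quantified with primer-probe set RTS36584, normalised to RIBOGREEN total RNA and expressed as % untreated control; IC50 from linear regression on log/linear plot.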

[5] = Table 59, 15.6 nM, A-431 cells 10,000 cells per well, 48 hours
[6] = Table 59, 62.5 nM, A-431 cells 10,000 cells per well, 48 hours
[7] = Table 59, 4000.00 nM, A-431 cells 10,000 cells per well, 48 hours
[8] = Table 59, A-431 cells 10,000 cells per well
[9] = 15.6 nM, A-431 cells, 10,000 cells per well, approximately 48 hours
[10] = 62.5 nM, A-431 cells, 10,000 cells per well, approximately 48 hours
[11] = 4000.00 nM, A-431 cells, 10,000 cells per well, approximately 48 hours
[12] = A-431 cells, approximately 48 hours, linear regression on log/linear plot

Row | Substance | % UTC (Yap1 mRNA) ([4]; 31.3 nM) [% UTC] | % UTC (Yap1 mRNA) ([4]; 125.0 nM) [% UTC] | % UTC (Yap1 mRNA) ([4]; 500.0 nM) [% UTC] | % UTC (Yap1 mRNA) ([4]; 2000.00 nM) [% UTC] | IC50 [4] [nM] | also measured
1 | 958533 (kG*k[5mC]*kA*dT*dA*dG*dA*dA*dG*dT*dA*dG*dG*kA*kG*k[5mC]; antisense) [compound 958533] |  |  |  |  |  | Yap1 mRNA, % UTC [1, 5]: 99 % UTC; Yap1 mRNA, % UTC [1, 6]: 61 % UTC; Yap1 mRNA, % UTC [1, 7]: 12 % UTC; IC50 [1, 8]: 100 nM
2 | 958550 (k[5mC]*k[5mC]*kT*dG*dT*dA*dG*dA*d[5mC]*dA*d[5mC]*dA*dT*kA*k[5mC]*kT; antisense) [compound 958550] |  |  |  |  |  | Yap1 mRNA, % UTC [1, 9]: 91 % UTC; Yap1 mRNA, % UTC [1, 10]: 60 % UTC; Yap1 mRNA, % UTC [1, 11]: 10 % UTC; IC50 [1, 12]: 100 nM
3 | 958573 (kG*kG*k[5mC]*dA*dA*dA*dT*dT*dA*dT*dA*dG*dG*k[5mC]*kA*k[5mC]; antisense) [compound 958573] |  |  |  |  |  | Yap1 mRNA, % UTC [1, 5]: 81 % UTC; Yap1 mRNA, % UTC [1, 6]: 56 % UTC; Yap1 mRNA, % UTC [1, 7]: 8 % UTC; IC50 [1, 8]: 100 nM
4 | 958819 (kT*kG*k[5mC]*dT*dT*d[5mC]*dA*dA*d[5mC]*dA*dT*dT*dG*kT*kT*k[5mC]; antisense) [compound 958819] |  |  |  |  |  | Yap1 mRNA, % UTC [1, 9]: 79 % UTC; Yap1 mRNA, % UTC [1, 10]: 63 % UTC; Yap1 mRNA, % UTC [1, 11]: 19 % UTC; IC50 [1, 12]: 100 nM
5 | 1074798 (kG*k[5mC]*kT*dT*dT*dG*dG*dA*dA*dG*dA*dT*d[5mC]*kT*kG*kA) [compound 1074798] | 62 | 38 | 17 | 8 | 100 | YAP1 (% UTC) [2]: 4 % UTC; Yap1 mRNA, % UTC ([3]; 31.3 nM): 34 % UTC; Yap1 mRNA, % UTC ([3]; 125.0 nM): 12 % UTC; Yap1 mRNA, % UTC ([3]; 500.0 nM): 5 % UTC; Yap1 mRNA, % UTC ([3]; 2000.00 nM): 6 % UTC; IC50 [3]: < 20 nM
6 | 1074728 (antisense kT*kG*kA*dG*dG*dT*dA*dT*dA*dA*d[5mC]*dT*dG*kG*kG*k[5mC]) [compound 1074728] | 69 | 45 | 19 | 8 | 100 | Yap1 mRNA, % UTC ([3]; 31.3 nM): 28 % UTC; Yap1 mRNA, % UTC ([3]; 125.0 nM): 7 % UTC; Yap1 mRNA, % UTC ([3]; 500.0 nM): 4 % UTC; Yap1 mRNA, % UTC ([3]; 2000.00 nM): 4 % UTC; IC50 [3]: < 20 nM
7 | 1198438 (kT*dG*dT*dA*dT*dG*dT*d[5mC]*dA*dG*dA*kA*eG*kA*eG*kT) [compound 1198438] | 62 | 28 | 7 | 2 | 40 | 
8 | 1197236 (kT*kA*kT*dT*mA*dG*dA*dG*dT*dA*dT*dG*dT*kG*kG*k[5mC]; antisense) [compound 1197236] | 64 | 46 | 25 | 14 | 100 | 
9 | 1198786 (kT*eG*kT*dA*dT*dG*dT*d[5mC]*dA*dG*dA*dA*eG*eA*kG*kT) [compound 1198786] | 63 | 32 | 11 | 2 | 100 | 
10 | 1200784 (kT*kG*kT*d[5mC]*dT*mC*dA*dT*dG*d[5mC]*d[5mC]*dT*dT*kA*kT*kA; antisense) [compound 1200784] | 70 | 51 | 26 | 12 | 100 | 
11 | 1198832 (kG*k[5mC]*dA*d[5mC]*dT*dT*dT*dT*dA*d[5mC]*dA*kT*eT*kA*eG*kG; antisense) [compound 1198832] | 77 | 53 | 23 | 13 | 100 | 
